Drawing on publication PMC7618454, “Interleukin-1 receptor-associated kinase 4 (IRAK4) is a critical regulator of inflammatory signalling through toll-like receptors 4 and 7/8 in murine and human lungs” (British journal of pharmacology, 2024), this text covers IC50 for 1 substance.

pIC50: −log10 of the molar value.

The target in assay [1] is T1, interleukin-1 receptor-associated kinase 4 (IRAK4) (Homo sapiens, UniProt Q9NWZ3).
T1 construct: kinase domain, aa 153–460, N-terminal His6-tagged
T1 sequence (Q9NWZ3 153-460): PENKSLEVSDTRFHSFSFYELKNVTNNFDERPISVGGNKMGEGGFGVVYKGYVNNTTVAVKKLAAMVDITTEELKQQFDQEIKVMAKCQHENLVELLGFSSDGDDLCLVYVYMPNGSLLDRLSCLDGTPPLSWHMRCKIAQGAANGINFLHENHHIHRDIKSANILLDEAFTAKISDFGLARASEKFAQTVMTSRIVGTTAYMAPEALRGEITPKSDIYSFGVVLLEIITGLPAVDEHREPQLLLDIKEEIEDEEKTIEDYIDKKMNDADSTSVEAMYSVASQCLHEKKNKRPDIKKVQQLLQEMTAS
Kind of assay: IMAP fluorescence polarization kinase assay, […] ATP. The class given is biochemical. For orientation: Polarisation of emitted light reports the rotation of a fluorescent probe.

The target in assay [2] is T2, interleukin-1 receptor-associated kinase 4 (IRAK4) (Mus musculus, UniProt Q8R4K2).
T2 construct: kinase domain, aa 153–459, N-terminal His6-tagged
T2 sequence (Q8R4K2 153-459): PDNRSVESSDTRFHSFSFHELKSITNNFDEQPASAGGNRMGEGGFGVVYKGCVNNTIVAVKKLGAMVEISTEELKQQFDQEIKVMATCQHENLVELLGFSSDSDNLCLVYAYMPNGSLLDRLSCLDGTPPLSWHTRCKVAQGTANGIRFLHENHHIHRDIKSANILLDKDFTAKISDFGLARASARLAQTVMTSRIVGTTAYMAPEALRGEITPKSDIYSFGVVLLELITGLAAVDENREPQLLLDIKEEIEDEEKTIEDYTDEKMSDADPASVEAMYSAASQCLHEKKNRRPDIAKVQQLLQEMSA
Kind of assay: IMAP fluorescence polarization kinase assay, […] ATP. The class given is biochemical.

Turning to BI1543673, the negative-log IC50 (pIC50) in assay [1] and in assay [2] was approximately 8.70 in each case.

What is called pIC50 is the IC50 on a negative log10 scale, so that one unit is a factor of ten. High values mean a small IC50, low ones a large IC50.
